Laboratory results from patent publication US9242937B2, “Pharmaceutically active disubstituted pyridine derivatives” (Bayer Intellectual Property GmbH, priority 2011, dated 2016).

Columns and labels:
[1] = target: T1, CDK2/CyclinA (Homo sapiens, UniProt P24941); test: LanthaScreen Eu Kinase Binding Assay, CDK2; details: tracer 236, read-out: CDK2 (activity range), Kd
T1 construct: purchased Proqinase
Description: This protocol describes how the LanthaScreen Eu Kinase Binding Assay was performed to determine dissociation constants (Kd) of compounds of general formula (I) and CDK/Cyclin complexes. The principle behind this assay is based upon the binding and displacement of an Alexa Fluor 647-labeled tracer, which binds to the active site of kinases. Binding of the tracer to the kinase is detected using a Eu-labeled antibody. Simultaneous binding of both the tracer and antibody to the kinase gives rise to a FRET-signal. Binding of an inhibitor to the kinase competes for binding with the tracer, resulting in a loss of FRET.
The compounds of general formula (I) summarized in Table 1 were diluted from a 10 mM DMSO stock solution 1:10 in a total volume of 15 μL DMSO. This compound predilution was then serial diluted 1:3 over 8 steps in DMSO and briefly spun down. Each compound solution was now diluted 1:33.33 in kinase buffer (HEPES: 20 mM, pH: 8.0; MgCl2: 10 mM; DTT: 1 mM; Brij-35: 0.01%), mixed thoroughly and spun down. For every sample, 5 μL of the diluted compound were mixed with 5 μL tracer working solution (e.g. 60 nM tracer 236 in kinase buffer for CDK2/Cyclin A) and 5 μL CDK/Cyclin/Anti-GST-AB-working solution (e.g. 15 nM CDK2/Cyclin A, 1:250 dilution of Anti-GST-AB in kinase buffer) in a well of a small volume 384 well plate (Corning Incorporated, Corning, N.Y., USA; order no. 3673). The tracer concentration was adjusted to its dissociation constant (Kd) for the CDK/Cyclin, which was 30 nM for CDK2/Cyclin A, CDK7/Cyclin H and CDK9/Cyclin T1, 20 nM for CDK8/Cyclin C, and 35 nM for CDK9/Cyclin K. For negative controls, in each well 5 μL of DMSO working solution (3% DMSO diluted in kinase buffer) was mixed with 5 μL Anti-GST-AB working solution (e.g. 1:250 dilution of Anti-GST-AB in kinase buffer for CDK2/Cyclin A) and 5 μL Tracer working solution (e.g. 60 nM Tracer 236 in kinase buffer for CDK2/Cyclin A). For positive controls, in each well 5 μL of DMSO working solution (3% DMSO diluted in kinase buffer) was mixed with 5 μL CDK/Cyclin/Anti-GST-AB-working solution: (e.g. 15 nM CDK2/Cyclin A, 1:250 dilution of Anti-GST-AB in kinase buffer) and 5 μL Tracer working solution (e.g. 60 nM Tracer 236 in kinase buffer for CDK2/Cyclin A). Positive and negative controls were calculated from at least 8 different sample wells. The 384 well plates were mixed in a Teleshaker plate mixer (Beckman Coulter, Brea, Calif., USA) at 2000 rpm for 40 sec, and incubated for 1 h at room temperature before reading. The FRET signal was measured at 340 nm excitation, 665 nm and 615 nm emission (for the kinase tracer and LanthaScreen Eu-AB, respectively) with an Envision spectrophotometer (Perkin Elmer, Waltham, Mass., USA) with 50 μs delay and 300 μs integration time. Kd values were determined from the sigmoidal dose response curves with the software Quattro Workflow (Quattro GmbH, Munich, Germany).

[2] = tested on: MDAMB468 cells; test: Cell viability assay, MDAMB468 cells; assay type: cell-based; details: Homo sapiens, MDA-MB-468; 72 h, Cell Titer Glo; read-out: Cell Viability - MDAMB468 cells (activity range), IC50
Description: Hela- or MDAMB468-Cells were maintained in RPMI 1640 or McCoy's 5A cell culture medium+glutamine (PAN Biotech GmbH, Aidenbach, Germany; order no. P04-22100; P04-05500) supplemented with 10% fetal calf serum “Gold” (PAA Laboratories GmbH, Pasching, Austria; order no. A15-151) and grown at 37° C., 5% CO2. For the cell viability assay, cells were seeded with a density of 400 (Hela cells, DSMZ Braunschweig order no. ACC57) or 800 (MDAMB468 cells, ATCC order no. HTB-132) per well in 25 μL in 384-well plates (Greiner Bio-One, Frickenhausen, Germany; order no. 781080). After overnight incubation at 37° C./5% CO2, 25 nL or 75 nL compound were added to each sample well by using BIOMEK FXP Laboratory Automation Workstation (Beckman Coulter, USA). Wells with cells and 0.1% or 0.3% DMSO in culture medium were used as positive controls, wells with cells and 10 μM staurosporine in culture medium were used as negative controls. The cells were incubated with the compounds for 72 h at 37° C./5% CO2. For measurement of cell viability 25 μL Cell Titer Glo reagent (Promega, Madison, USA; order no. G7573), 1:2 diluted with cell culture medium, was added to each well. The 384 well-plates were placed for 2 min on a orbital microplate shaker and incubated for further 10 min at room temperature to stabilize the luminescence signal. Luminescence was measured by Envision Plate Reader (Perkin Elmer, USA). IC50 values were calculated with the software Excel Fit (IDBS, Guildford, UK) from 3-fold dilution series comprising at least 8 concentrations in duplicates.

[3] = tested on: LPS-induced TNF alpha release in PBMCs; test: TNF alpha release assay (LPS-stimulated PBMCs); assay type: cell-based; details: Homo sapiens, PBMC, 1 μg/mL LPS, 6 h, read-out: TNF alpha release (activity range), IC50
Description: Freshly isolated peripheral blood mononuclear cells (PBMCs) were seeded in 96-well cell culture plates with 200,000 cells in 100 μl cell culture medium (DMEM cell culture medium+glutamine from PAN Biotech GmbH, Aidenbach, Germany) supplemented with 10% fetal calf serum (PAA Laboratories GmbH, Pasching, Austria) per well and incubated overnight at 37° C., 5% CO2. To each well, 100 μL cell culture medium with 2× concentrated test compounds diluted from 10 mM DMSO stocks, or 100 μL DMEM with 0.4% DMSO for control wells, was added. The compounds of general formula (I) summarized in Table 6 were used in this assay. After incubation for 1 h at 37° C., 5% CO2, cells were stimulated with 1 μg/mL LPS (Lipopolysaccharides, Sigma, catalog #L4391-1 MG; 1 mg/ml stock solution), or left untreated for negative controls, and plates were incubated for 6 h at 37° C./5% CO2. The cell culture plates were centrifuged at 2000 rpm for 5 minutes, and supernatants were transferred to fresh 96-well polypropylene plates. 25 μL of supernatants were transferred into 96-well-plates of the human TNF alpha-tissue culture kit (Meso Scale Discovery, Gaithersburg, Md., USA), and manufacturer's instructions were followed for analysis of TNF alpha levels. Chemoluminescence was measured in the Mesoscale Sector Imager, and IC50 values were calculated with the software Excel Fit (IDBS, Guildford, UK) from 2-fold dilution series comprising at least 6 concentrations in duplicates.

Row | SMILES | Kd [1] [nM] | IC50 [2] [nM] | IC50 [3] [nM]
1 | COc1cc(F)ccc1-c1ccnc(Nc2cccc(CS(=O)(=O)N(C)C)c2)c1 [Compound G3, 1-[3-((4-(4-Fluoro-2-methoxyphenyl)pyridin-2-yl)amino)phenyl]-N,N-dimethylmethanesulfonamide] | 100 to 1000 | 1000 to 10000 | –
2 | COc1ccccc1-c1ccnc(Nc2cccc(S(N)(=O)=O)c2)c1 [Compound D1, 3-[(4-(2-Methoxyphenyl)pyridin-2-yl)amino]benzenesulfonamide] | < 100 | 100 to 1000 | 100 to 1000
3 | COc1ccccc1-c1ccnc(Nc2ccc(S(N)(=O)=O)cc2)c1 [Compound E1, 4-[(4-(2-Methoxyphenyl)pyridin-2-yl)amino]benzenesulfonamide] | < 100 | 1000 to 10000 | 1000 to 10000
4 | COc1cc(F)ccc1-c1ccnc(Nc2cccc(NS(C)(=O)=O)c2)c1 [Compound J1, N-[3-((4-(4-Fluoro-2-methoxyphenyl)pyridin-2-yl)amino)phenyl]-methanesulfonamide] | < 100 | 1000 to 10000 | –
5 | COc1ccccc1-c1ccnc(Nc2cccc(S(C)(=O)=O)c2)c1 [Compound F1, 4-(2-Methoxyphenyl)-N-(3-(methylsulfonyl)phenyl)pyridin-2-amine] | 100 to 1000 | 1000 to 10000 | 1000 to 10000
6 | COc1cc(F)ccc1-c1ccnc(Nc2cccc(NC(C)=O)c2)c1 [Compound J2, N-[3-((4-(4-Fluoro-2-methoxyphenyl)pyridin-2-yl)amino)phenyl]-acetamide] | 100 to 1000 | 1000 to 10000 | –
7 | CCCNS(=O)(=O)Cc1cccc(Nc2cc(-c3ccc(F)cc3OC)ccn2)c1 [Compound K1, 1-[3-((4-(4-Fluoro-2-methoxyphenyl)pyridin-2-yl)amino)phenyl]-N-propylmethanesulfonamide] | 100 to 1000 | > 10000 | –
8 | COc1cc(F)ccc1-c1ccnc(Nc2cccc(CS(N)(=O)=O)c2)c1 [Compound G1, [3-((4-(4-Fluoro-2-methoxyphenyl)pyridin-2-yl)amino)phenyl]-methanesulfonamide] | 100 to 1000 | 1000 to 10000 | 100 to 1000
9 | COc1ccccc1-c1ccnc(Nc2cccc([N+](=O)[O-])c2)c1 [Compound C1, 4-(2-Methoxyphenyl)-N-(3-nitrophenyl)pyridin-2-amine] | – | > 10000 | 1000 to 10000
10 | COc1ccccc1-c1ccnc(Nc2ccccc2)c1 [Compound B1, 4-(2-Methoxyphenyl)-N-phenylpyridin-2-amine] | – | > 10000 | > 10000
